Results from PubChem BioAssay (NCI).
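Growth conditions: 96-well plates. Treatment: test compound, 48 hours, 5 concentrations. Analysis: linear interpolation between bracketing concentrations; unreached endpoints set to highest concentration. At the TGI there is no net growth.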

Columns and labels:
Assay in all cases: NCI anticancer screen, dose series, 48 h
CAKI-1 renal = system: CAKI-1 renal
LOX IMVI melanoma = system: LOX IMVI melanoma
SR leukemia = system: SR leukemia
DU-145 prostate = system: DU-145 prostate
A498 renal = system: A498 renal
HS 578T breast = system: HS 578T breast
HCT-116 colon = system: HCT-116 colon
U251 CNS = system: U251 CNS
TK-10 renal = system: TK-10 renal
HCT-15 colon = system: HCT-15 colon
NCI-H460 lung = system: NCI-H460 lung
T-47D breast = system: T-47D breast
MOLT-4 leukemia = system: MOLT-4 leukemia
MDA-MB-435 = system: MDA-MB-435
RXF 393 renal = system: RXF 393 renal
SF-539 CNS = system: SF-539 CNS
UACC-257 melanoma = system: UACC-257 melanoma
HCC-2998 colon = system: HCC-2998 colon
NCI-H522 lung = system: NCI-H522 lung

COC(=O)C1=CS/C(=C2\S[C@@H]3[C@H](S2)[C@H]2C=C[C@@H]3C2)S1
TGI (CAKI-1 renal): > 100 µM | TGI (LOX IMVI melanoma): > 100 µM | TGI (SR leukemia): > 100 µM | TGI (DU-145 prostate): > 100 µM | TGI (A498 renal): > 100 µM | TGI (HS 578T breast): > 100 µM | TGI (HCT-116 colon): > 100 µM | TGI (U251 CNS): > 100 µM | TGI (TK-10 renal): > 100 µM | TGI (HCT-15 colon): > 100 µM | TGI (NCI-H460 lung): > 100 µM | TGI (T-47D breast): > 100 µM | TGI (MOLT-4 leukemia): > 100 µM | TGI (MDA-MB-435): 5.09 µM | TGI (RXF 393 renal): > 100 µM | TGI (SF-539 CNS): 32.5 µM | TGI (UACC-257 melanoma): > 100 µM

CC1(C)/C(=C/N=O)N(O)C(C)(C)N1O
TGI (CAKI-1 renal): > 100 µM | TGI (LOX IMVI melanoma): > 100 µM | TGI (SR leukemia): > 100 µM | TGI (DU-145 prostate): > 100 µM | TGI (HS 578T breast): > 100 µM | TGI (HCT-116 colon): > 100 µM | TGI (U251 CNS): > 100 µM | TGI (TK-10 renal): > 100 µM | TGI (HCT-15 colon): > 100 µM | TGI (NCI-H460 lung): > 100 µM | TGI (T-47D breast): > 100 µM | TGI (HCC-2998 colon): > 100 µM | TGI (MDA-MB-435): 54.5 µM | TGI (RXF 393 renal): > 100 µM | TGI (SF-539 CNS): > 100 µM | TGI (UACC-257 melanoma): > 100 µM

C=CCCC1(CC(Sc2ccccc2)P(=O)(c2ccccc2)c2ccccc2)OCCO1 (stereo not given)
TGI (CAKI-1 renal): > 10 µM | TGI (LOX IMVI melanoma): > 10 µM | TGI (SR leukemia): > 10 µM | TGI (DU-145 prostate): > 10 µM | TGI (A498 renal): > 10 µM | TGI (HS 578T breast): > 10 µM | TGI (HCT-116 colon): > 10 µM | TGI (U251 CNS): > 10 µM | TGI (TK-10 renal): > 10 µM | TGI (HCT-15 colon): > 10 µM | TGI (NCI-H460 lung): > 10 µM | TGI (T-47D breast): > 10 µM | TGI (MOLT-4 leukemia): > 10 µM | TGI (HCC-2998 colon): > 10 µM | TGI (MDA-MB-435): > 10 µM | TGI (RXF 393 renal): > 10 µM | TGI (SF-539 CNS): > 10 µM | TGI (UACC-257 melanoma): > 10 µM

CCOC(=O)c1cc2c3ccn(Cc4ccccc4)c3c3c(C)[nH]oc3c2n1
TGI (NCI-H522 lung): > 100 µM | TGI (CAKI-1 renal): > 100 µM | TGI (LOX IMVI melanoma): > 100 µM | TGI (SR leukemia): > 100 µM | TGI (DU-145 prostate): > 100 µM | TGI (A498 renal): > 100 µM | TGI (HS 578T breast): > 100 µM | TGI (HCT-116 colon): > 100 µM | TGI (U251 CNS): > 100 µM | TGI (TK-10 renal): > 100 µM | TGI (HCT-15 colon): > 100 µM | TGI (NCI-H460 lung): > 100 µM | TGI (T-47D breast): > 100 µM | TGI (MOLT-4 leukemia): > 100 µM | TGI (HCC-2998 colon): > 100 µM | TGI (MDA-MB-435): > 100 µM | TGI (RXF 393 renal): > 100 µM | TGI (UACC-257 melanoma): > 100 µM

O=c1cc(N2CCCC2)[nH]c(=O)n1-c1cccc(Cl)c1
TGI (NCI-H522 lung): > 100 µM | TGI (CAKI-1 renal): > 100 µM | TGI (LOX IMVI melanoma): > 100 µM | TGI (DU-145 prostate): > 100 µM | TGI (A498 renal): > 100 µM | TGI (HS 578T breast): > 100 µM | TGI (HCT-116 colon): > 100 µM | TGI (U251 CNS): > 100 µM | TGI (TK-10 renal): > 100 µM | TGI (HCT-15 colon): > 100 µM | TGI (NCI-H460 lung): > 100 µM | TGI (T-47D breast): > 100 µM | TGI (MOLT-4 leukemia): > 100 µM | TGI (HCC-2998 colon): > 100 µM | TGI (MDA-MB-435): > 100 µM | TGI (RXF 393 renal): > 100 µM | TGI (SF-539 CNS): > 100 µM | TGI (UACC-257 melanoma): > 100 µM

N#CCCC(CCC#N)(CCC#N)NO
TGI (NCI-H522 lung): 46.1 µM | TGI (CAKI-1 renal): > 100 µM | TGI (SR leukemia): > 100 µM | TGI (DU-145 prostate): > 100 µM | TGI (HS 578T breast): > 100 µM | TGI (HCT-116 colon): > 100 µM | TGI (U251 CNS): > 100 µM | TGI (TK-10 renal): > 100 µM | TGI (HCT-15 colon): > 100 µM | TGI (NCI-H460 lung): > 100 µM | TGI (T-47D breast): > 100 µM | TGI (MDA-MB-435): > 100 µM | TGI (RXF 393 renal): > 100 µM | TGI (SF-539 CNS): > 100 µM | TGI (UACC-257 melanoma): > 100 µM

CC1S/C(=N\N=C2/C(=O)Nc3ccc(Br)cc32)N(C2CCCCC2)C1=O (stereo not given)
TGI (CAKI-1 renal): 6.39 µM | TGI (LOX IMVI melanoma): 13.6 µM | TGI (SR leukemia): 39.4 µM | TGI (DU-145 prostate): 17.6 µM | TGI (A498 renal): 12.5 µM | TGI (HS 578T breast): 14.4 µM | TGI (HCT-116 colon): 6.61 µM | TGI (U251 CNS): 7.73 µM | TGI (TK-10 renal): 6.58 µM | TGI (HCT-15 colon): 16 µM | TGI (NCI-H460 lung): 18.8 µM | TGI (T-47D breast): 19.6 µM | TGI (MOLT-4 leukemia): > 100 µM | TGI (HCC-2998 colon): 45 µM | TGI (MDA-MB-435): 23.1 µM | TGI (RXF 393 renal): 14.9 µM | TGI (SF-539 CNS): 16.3 µM | TGI (UACC-257 melanoma): > 100 µM
